These results are taken from US11141413B2, “Method of treating renal cell carcinoma using N-(4-(6,7-dimethoxyquinolin-4-yloxy)phenyl)-N′-(4-fluorophenyl)cyclopropane-1,1-dicarboxamide, (2S)-hydroxybutanedioate” (Exelixis, Inc., priority 2016, dated 2021).

The nature of series [1]: Pharmacokinetics in patients with hepatic impairment. The series is classed as in vivo, human. From the text:
Patients with severe hepatic impairment have not been studied.

Another series addresses VEGFR-3 (Homo sapiens, UniProt P35916). The experiment in a line: In vitro biochemical and/or cellular kinase assays.
Series [2] addresses T1, CYP3A4 (Homo sapiens, UniProt P08684). Briefly: Metabolic pathways in vitro: effect of CYP inhibition on cabozantinib metabolite formation. The series is classed as in vitro ADME.
The nature of series [3]: Excretion after single 140 mg 14C-cabozantinib dose in healthy subjects. The series is classed as in vivo, human. How it is done:
Approximately 81% of the total administered radioactivity was recovered within a 48-day collection period following a single 140 mg dose of an investigational ^14C-cabozantinib formulation in healthy subjects. Approximately 54% was recovered in feces and 27% in urine.

For series [4], the target named is T1, CYP3A4. Briefly: Clinical drug interaction: strong CYP3A4 inhibitor ketoconazole on cabozantinib. The series is classed as in vivo. Particulars: with ketoconazole 400 mg daily for 27 days, healthy subjects. Further details: from tissue.
For the next series, the target named is TRKB (Homo sapiens, UniProt Q16620). Briefly: In vitro biochemical and/or cellular kinase assays.
TRKB, sequence (Q16620 32-822): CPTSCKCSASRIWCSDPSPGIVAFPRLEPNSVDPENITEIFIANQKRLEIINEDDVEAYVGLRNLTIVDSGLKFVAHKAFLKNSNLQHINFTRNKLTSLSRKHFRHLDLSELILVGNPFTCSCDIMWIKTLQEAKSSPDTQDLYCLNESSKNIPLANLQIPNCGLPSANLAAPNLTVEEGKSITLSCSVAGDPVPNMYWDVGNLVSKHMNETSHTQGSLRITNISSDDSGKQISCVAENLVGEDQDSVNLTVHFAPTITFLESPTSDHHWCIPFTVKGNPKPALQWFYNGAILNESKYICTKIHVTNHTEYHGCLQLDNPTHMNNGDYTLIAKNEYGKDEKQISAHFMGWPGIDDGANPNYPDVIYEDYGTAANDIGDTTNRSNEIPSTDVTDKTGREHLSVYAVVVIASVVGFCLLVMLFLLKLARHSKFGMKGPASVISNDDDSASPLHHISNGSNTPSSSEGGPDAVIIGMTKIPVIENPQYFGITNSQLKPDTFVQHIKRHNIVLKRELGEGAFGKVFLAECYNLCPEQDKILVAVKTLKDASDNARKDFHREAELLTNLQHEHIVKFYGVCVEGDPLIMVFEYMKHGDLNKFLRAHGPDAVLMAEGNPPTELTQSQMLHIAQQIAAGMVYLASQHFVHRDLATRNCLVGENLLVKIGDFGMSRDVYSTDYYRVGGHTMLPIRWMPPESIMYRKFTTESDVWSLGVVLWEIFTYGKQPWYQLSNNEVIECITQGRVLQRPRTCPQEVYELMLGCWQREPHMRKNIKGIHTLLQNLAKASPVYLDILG
The target in another series is CYP2D6 (Homo sapiens, UniProt P10635). The experiment in a line: Metabolic pathways in vitro: effect of CYP inhibition on cabozantinib metabolite formation. The series is classed as in vitro ADME.
CYP2D6, sequence (P10635 whole entry): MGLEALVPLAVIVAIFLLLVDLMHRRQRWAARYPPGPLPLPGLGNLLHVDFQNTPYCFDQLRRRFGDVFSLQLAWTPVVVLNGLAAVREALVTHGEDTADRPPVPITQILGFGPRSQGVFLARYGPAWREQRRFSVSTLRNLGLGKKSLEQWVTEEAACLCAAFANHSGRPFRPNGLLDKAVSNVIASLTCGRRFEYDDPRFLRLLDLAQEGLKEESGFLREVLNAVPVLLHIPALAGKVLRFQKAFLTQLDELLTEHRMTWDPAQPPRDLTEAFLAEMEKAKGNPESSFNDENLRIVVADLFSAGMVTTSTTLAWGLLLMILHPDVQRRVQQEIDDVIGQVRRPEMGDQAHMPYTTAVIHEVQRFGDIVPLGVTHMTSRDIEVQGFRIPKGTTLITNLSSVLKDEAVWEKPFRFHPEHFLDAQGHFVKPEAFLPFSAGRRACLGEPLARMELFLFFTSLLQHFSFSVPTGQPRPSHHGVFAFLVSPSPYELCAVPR
The target of series [5] is T1, CYP3A4. The experiment in a line: Clinical drug interaction: strong CYP3A4 inducer rifampin on cabozantinib. The series is classed as in vivo. The arrangement: from tissue. Particulars: with rifampin 600 mg daily for 31 days, healthy subjects.
The target in another series is RET (Homo sapiens, UniProt P07949). Briefly: In vitro biochemical and/or cellular kinase assays.
Another series relates to pregnant rats. The experiment in a line: Embryo-fetal development study in pregnant rats.
Series [6] has as its system female rats and offspring. The experiment in a line: Pre- and postnatal study in rats. Particulars: oral, gestation day 10 through postnatal day 20.
The next series deals with CYP2C19 (Homo sapiens, UniProt P33261). The experiment in a line: Metabolic pathways in vitro: effect of CYP inhibition on cabozantinib metabolite formation. Type of series: in vitro ADME.
CYP2C19, sequence (P33261 whole entry): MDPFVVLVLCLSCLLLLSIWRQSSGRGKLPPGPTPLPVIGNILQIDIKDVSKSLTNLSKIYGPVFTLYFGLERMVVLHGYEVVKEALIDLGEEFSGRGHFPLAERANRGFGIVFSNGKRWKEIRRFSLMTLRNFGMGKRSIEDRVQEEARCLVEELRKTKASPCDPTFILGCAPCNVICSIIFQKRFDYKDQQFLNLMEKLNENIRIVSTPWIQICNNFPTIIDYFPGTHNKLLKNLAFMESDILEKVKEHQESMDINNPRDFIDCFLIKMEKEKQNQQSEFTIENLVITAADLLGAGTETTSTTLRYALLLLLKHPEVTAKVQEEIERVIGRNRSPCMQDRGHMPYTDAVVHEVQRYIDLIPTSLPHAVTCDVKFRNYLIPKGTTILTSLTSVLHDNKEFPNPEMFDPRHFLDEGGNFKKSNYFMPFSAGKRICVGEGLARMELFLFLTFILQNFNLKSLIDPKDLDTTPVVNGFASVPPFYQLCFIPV
The test system of series [7] is metastatic renal cell carcinoma (mRCC). The experiment in a line: CABOSUN (ALLIANCE A031203) trial, cabozantinib vs sunitinib as initial targeted therapy. How it is done: Pts were randomized 1:1 to receive Cabo (60 mg QD) or Sun (50 mg QD, 4 weeks on/2 weeks off). Pts were stratified by the IMDC risk groups (intermediate vs. poor risk) and bone metastasis (yes, no). […] Secondary endpoints included OS, investigator-assessed overall response rate (ORR), and toxicity. The Kaplan-Meier product-limit estimator was used to estimate the OS between treatment arms.

In another series the target is CYP2C8 (Homo sapiens, UniProt P10632). The experiment in a line: In vitro CYP inhibition by cabozantinib. Type of series: in vitro ADME.
CYP2C8, sequence (P10632 whole entry): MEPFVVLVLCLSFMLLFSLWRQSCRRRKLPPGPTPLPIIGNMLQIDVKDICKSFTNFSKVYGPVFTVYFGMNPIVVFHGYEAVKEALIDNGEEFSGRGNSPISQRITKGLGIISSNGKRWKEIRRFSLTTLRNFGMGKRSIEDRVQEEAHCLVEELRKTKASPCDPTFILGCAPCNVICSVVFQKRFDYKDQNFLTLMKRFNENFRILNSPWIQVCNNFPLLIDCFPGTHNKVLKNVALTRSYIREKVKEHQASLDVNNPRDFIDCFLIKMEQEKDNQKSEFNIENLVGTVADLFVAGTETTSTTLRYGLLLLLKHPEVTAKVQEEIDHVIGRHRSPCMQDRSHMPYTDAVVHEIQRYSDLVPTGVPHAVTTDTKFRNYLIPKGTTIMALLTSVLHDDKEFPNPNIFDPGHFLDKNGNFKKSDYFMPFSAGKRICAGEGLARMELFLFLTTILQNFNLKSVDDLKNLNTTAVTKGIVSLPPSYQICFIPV
For another series, the target named is MRP2 (Homo sapiens, UniProt Q92887). Briefly: Drug transporter systems in vitro. The series is classed as in vitro ADME.
The target in the next series is FLT-3 (Homo sapiens, UniProt P36888). Briefly: In vitro biochemical and/or cellular kinase assays.
FLT-3, sequence (P36888 27-993): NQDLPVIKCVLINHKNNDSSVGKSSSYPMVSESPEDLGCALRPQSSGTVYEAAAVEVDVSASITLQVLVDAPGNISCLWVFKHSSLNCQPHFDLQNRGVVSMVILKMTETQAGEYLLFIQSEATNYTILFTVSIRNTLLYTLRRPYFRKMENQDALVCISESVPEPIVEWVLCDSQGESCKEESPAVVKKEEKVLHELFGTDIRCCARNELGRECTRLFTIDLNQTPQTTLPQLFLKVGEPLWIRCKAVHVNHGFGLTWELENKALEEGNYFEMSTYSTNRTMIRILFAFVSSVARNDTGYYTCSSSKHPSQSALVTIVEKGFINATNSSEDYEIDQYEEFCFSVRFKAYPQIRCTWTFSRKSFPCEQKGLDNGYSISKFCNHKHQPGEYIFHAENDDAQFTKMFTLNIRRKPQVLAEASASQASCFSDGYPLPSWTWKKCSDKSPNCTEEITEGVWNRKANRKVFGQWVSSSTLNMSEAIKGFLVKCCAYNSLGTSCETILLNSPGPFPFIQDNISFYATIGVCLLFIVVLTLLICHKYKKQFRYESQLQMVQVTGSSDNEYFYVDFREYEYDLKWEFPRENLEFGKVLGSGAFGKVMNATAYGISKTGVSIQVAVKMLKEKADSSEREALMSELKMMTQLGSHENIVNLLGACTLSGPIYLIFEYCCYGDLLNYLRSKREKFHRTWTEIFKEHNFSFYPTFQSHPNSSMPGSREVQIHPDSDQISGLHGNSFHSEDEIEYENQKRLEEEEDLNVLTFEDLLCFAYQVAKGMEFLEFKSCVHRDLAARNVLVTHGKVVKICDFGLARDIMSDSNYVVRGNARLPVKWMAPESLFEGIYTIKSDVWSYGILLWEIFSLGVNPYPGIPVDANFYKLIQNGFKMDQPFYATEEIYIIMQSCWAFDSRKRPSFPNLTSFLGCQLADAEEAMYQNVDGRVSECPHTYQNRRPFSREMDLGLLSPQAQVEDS
Another series concerns human lymphocytes. Briefly: In vitro cytogenetic assay.
Series [8] concerns advanced renal cell carcinoma. Particulars: nivolumab study; cited from earlier work.

T1 sequence (P08684 whole entry): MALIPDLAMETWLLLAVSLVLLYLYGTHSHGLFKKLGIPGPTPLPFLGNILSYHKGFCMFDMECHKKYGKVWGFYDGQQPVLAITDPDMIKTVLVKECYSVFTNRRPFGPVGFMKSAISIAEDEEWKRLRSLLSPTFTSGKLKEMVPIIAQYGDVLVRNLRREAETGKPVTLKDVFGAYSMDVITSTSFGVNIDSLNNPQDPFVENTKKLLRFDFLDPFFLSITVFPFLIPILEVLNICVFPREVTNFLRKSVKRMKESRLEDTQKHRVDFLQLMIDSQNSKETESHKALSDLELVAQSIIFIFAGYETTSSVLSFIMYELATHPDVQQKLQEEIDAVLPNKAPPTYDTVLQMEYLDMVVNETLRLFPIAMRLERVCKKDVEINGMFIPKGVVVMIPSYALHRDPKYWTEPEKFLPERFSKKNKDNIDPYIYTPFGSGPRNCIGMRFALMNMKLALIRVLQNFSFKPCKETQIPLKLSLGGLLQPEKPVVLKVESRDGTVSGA
VEGFR-3, sequence (P35916 25-1363): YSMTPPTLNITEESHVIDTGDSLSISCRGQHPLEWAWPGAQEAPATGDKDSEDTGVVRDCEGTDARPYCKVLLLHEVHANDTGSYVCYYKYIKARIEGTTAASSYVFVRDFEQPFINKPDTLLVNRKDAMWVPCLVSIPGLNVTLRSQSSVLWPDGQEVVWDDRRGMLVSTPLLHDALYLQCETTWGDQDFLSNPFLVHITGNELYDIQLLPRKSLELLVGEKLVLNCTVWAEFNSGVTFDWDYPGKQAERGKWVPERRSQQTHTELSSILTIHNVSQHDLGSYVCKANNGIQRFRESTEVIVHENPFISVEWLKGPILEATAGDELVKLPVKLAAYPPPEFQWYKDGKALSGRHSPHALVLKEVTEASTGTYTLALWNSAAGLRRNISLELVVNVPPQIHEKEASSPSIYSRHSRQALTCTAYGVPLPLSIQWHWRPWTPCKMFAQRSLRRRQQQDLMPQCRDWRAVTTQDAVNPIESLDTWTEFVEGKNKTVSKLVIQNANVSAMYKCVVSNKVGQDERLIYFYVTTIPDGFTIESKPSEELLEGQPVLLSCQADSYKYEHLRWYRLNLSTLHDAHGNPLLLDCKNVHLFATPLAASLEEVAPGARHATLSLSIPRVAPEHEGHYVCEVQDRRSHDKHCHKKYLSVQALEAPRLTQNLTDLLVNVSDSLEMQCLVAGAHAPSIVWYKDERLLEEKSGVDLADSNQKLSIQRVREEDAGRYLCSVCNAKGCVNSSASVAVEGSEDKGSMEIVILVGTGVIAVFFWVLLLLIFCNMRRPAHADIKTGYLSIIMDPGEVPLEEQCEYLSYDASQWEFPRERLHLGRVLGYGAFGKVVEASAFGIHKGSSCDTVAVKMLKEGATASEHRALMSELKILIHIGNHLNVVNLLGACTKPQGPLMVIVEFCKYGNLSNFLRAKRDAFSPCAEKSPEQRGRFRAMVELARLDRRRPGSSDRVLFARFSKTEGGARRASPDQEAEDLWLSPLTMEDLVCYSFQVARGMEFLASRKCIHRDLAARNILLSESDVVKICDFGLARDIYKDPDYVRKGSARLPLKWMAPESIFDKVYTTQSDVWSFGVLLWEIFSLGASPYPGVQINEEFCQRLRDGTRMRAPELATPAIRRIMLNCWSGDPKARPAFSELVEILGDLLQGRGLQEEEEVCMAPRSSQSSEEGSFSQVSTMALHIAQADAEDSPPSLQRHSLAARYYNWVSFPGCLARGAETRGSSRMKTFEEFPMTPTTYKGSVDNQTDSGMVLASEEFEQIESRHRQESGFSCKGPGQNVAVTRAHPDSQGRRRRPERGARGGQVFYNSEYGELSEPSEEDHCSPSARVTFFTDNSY

`COc1cc2nccc(Oc3ccc(NC(=O)C4(C(=O)Nc5ccc(F)cc5)CC4)cc3)c2cc1OC` [cabozantinib]: the “Exposure in patients with mild to moderate hepatic impairment” value in [1] (human, in vivo) is “Increased exposure”. Further, the “Increase in exposure (AUC0-inf)” value in series [1] (mild (C-P A) hepatic impairment) was found to be 81%. In addition, the “Increase in exposure (AUC0-inf)” value in series [1] (moderate (C-P B) hepatic impairment) is listed as 63%. Moreover, the “Inhibition of tyrosine kinase activity” value at VEGFR-3 is reported as “inhibits”. The “CYP3A4 substrate status in vitro” value on CYP3A4 [2] is “substrate”. In series [3] (48-day collection), the “Radioactivity recovered in feces” value is listed as “Approximately 54%” and the “Radioactivity recovered in urine” value is listed as roughly 27%. Also, in series [3] (72 hour collection), the “Unchanged cabozantinib in urine” value is “not detectable” and the “Unchanged cabozantinib, share of total radioactivity in feces” value was 43%. The “Total administered radioactivity recovered” value in [3] (within a 48-day collection period, single 140 mg dose) is “Approximately 81%”. Also, the “Increase in single-dose plasma cabozantinib exposure (AUC0-inf)” value at CYP3A4 [4] was found to be 38%. Also, the “Inhibition of tyrosine kinase activity” value at TRKB is given as “inhibits”. Further, the “Effect of inhibition of CYP2D6 on cabozantinib metabolite formation” value on CYP2D6 is on record as “no effect”. Moreover, the “Decrease in single-dose plasma cabozantinib exposure (AUC0-inf)” value at CYP3A4 [5] is on record as 77%. Also, the “Inhibition of tyrosine kinase activity” value at RET is reported as “inhibits”. In addition, the “Dose causing increased embryo-fetal lethality compared to controls” value with pregnant rats (daily oral administration throughout organogenesis) was 0.03 mg/kg. For the same molecule, the “Dose with delayed ossification and skeletal variations” value in the series with pregnant rats (female, rat, in vivo, 0.1 mg/kg/day) stood at 0.1 mg/kg/day. Further, the “Doses without adverse maternal toxicity or effect on pregnancy, parturition, lactation, offspring survival, growth or postnatal development” value in series [6] is “up to 0.3 mg/kg/day”. For the same molecule, the “Effect of inhibition of CYP2C19 on cabozantinib metabolite formation” value on CYP2C19 is reported as “no effect”. For the same molecule, in series [7] (all-causality), the “Diarrhea, grade 3 or 4” value was determined as 10%; the “Fatigue, grade 3 or 4” value is given as 6%; the “Hematologic adverse events, grade 3 or 4” value amounted to 3%; the “Hypertension, grade 3 or 4” value amounted to 28%. The “Palmar-plantar erythrodysesthesia, grade 3 or 4” value in series [7] (all-causality) is reported as 8%. For the same molecule, in series [7] (in vivo), the “All-causality grade 3 or 4 adverse events” value amounted to 67%; the “Median OS” value was determined as 30.3 months; the ORR is 46%; the “OS adjusted HR, cabozantinib vs sunitinib” value turned out to be 0.80. Further, in series [7] (in vivo), the “Reduction in rate of progression or death vs sunitinib” value was 34%. In series [7] (untreated mRCC, intermediate or poor risk), the “Median PFS” value came out at 8.2 months. Moreover, the “Inhibition of CYP2C8 in vitro” value at CYP2C8 is “inhibitor”. Further, the “MRP2 substrate status in vitro” value on MRP2 is listed as “substrate”. The “Inhibition of tyrosine kinase activity” value on FLT-3 is “inhibits”. For the same molecule, the Clastogenicity result in the series with human lymphocytes is listed as “not clastogenic”.

For `CO[C@H]1C[C@@H]2CC[C@@H](C)[C@@](O)(O2)C(=O)C(=O)N2CCCC[C@H]2C(=O)O[C@H]([C@H](C)C[C@@H]2CC[C@@H](OCCO)[C@H](OC)C2)CC(=O)[C@H](C)/C=C(\C)[C@@H](O)[C@@H](OC)C(=O)[C@H](C)C[C@H](C)/C=C/C=C/C=C/1C` [everolimus], in [8], the “Median OS of comparator arm” value is recorded as 19.6 months and the “Median PFS of control arm” value was 4.4 months.
